Laboratory results reported in publication PMC12473246, “An Improved Ratiometric FRET Biosensor with Higher Affinity for Extracellular ATP” (Sensors (Basel, Switzerland), 2025).
Where two headings read alike, the source gives them in different places.

Key:
ecATeam3.10 = target: T1, ecATeam3.10 (Bacillus sp. PS3, UniProt A0A0M5MQR7); experiment: FRET ratio live-cell imaging dose response; type: cell-based; conditions: read-out: apparent dissociation constant
T1 construct: gene uncC; expressed on Neuro2A or HEK293 cells

ECATS2 (DM-20) = target: T2, ECATS2 (DM-20) (Bacillus sp. PS3, UniProt A0A0M5MQR7, R103A/R115A); experiment: FRET ratio live-cell imaging dose response; type: cell-based
T2 construct: gene uncC; double-mutant epsilon subunit between mseCFP and mVenus, 20 nm alpha-helical ER/K linker to PDGFR transmembrane domain
T2 sequence (A0A0M5MQR7 1-133, stated change not applied): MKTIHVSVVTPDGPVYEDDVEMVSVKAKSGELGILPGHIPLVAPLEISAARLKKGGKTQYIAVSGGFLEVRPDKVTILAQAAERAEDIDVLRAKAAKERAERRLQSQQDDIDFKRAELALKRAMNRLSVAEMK

T1 sequence (A0A0M5MQR7 1-133): as the sequence (A0A0M5MQR7 1-133, stated change not applied) above

SMILES	Kd (ecATeam3.10) [µM]	Kd (ECATS2 (DM-20); read-out: apparent dissociation constant) [µM]	Kd (ECATS2 (DM-20); read-out: apparent ADP dissociation constant) [µM]
Nc1ncnc2c1ncn2[C@@H]1O[C@H](COP(=O)(O)OP(=O)(O)OP(=O)(O)O)[C@@H](O)[C@H]1O [ATP]	12 ± 5	3.7 ± 0.6	–
Nc1ncnc2c1ncn2[C@@H]1O[C@H](COP(=O)(O)OP(=O)(O)O)[C@@H](O)[C@H]1O [ADP]	–	–	~100
